Experimental data: ChEMBL document CHEMBL4190379 (Bioorg Med Chem Lett, 2018)

Legend:
[1] = target: Bromodomain adjacent to zinc finger domain protein 2A (Homo sapiens) (UniProt Q9UIF9); experiment: Binding affinity to human BAZ2A expressed in bacterial system assessed as remaining binding level at 1 uM by BROMOscan assay relative to control
[2] = target: T1, Bromodomain-containing protein 1 (Homo sapiens) (UniProt O95696); experiment: Binding affinity to human BRD1 expressed in bacterial system assessed as remaining binding level at 1 uM by BROMOscan assay relative to control
T1 sequence (whole entry): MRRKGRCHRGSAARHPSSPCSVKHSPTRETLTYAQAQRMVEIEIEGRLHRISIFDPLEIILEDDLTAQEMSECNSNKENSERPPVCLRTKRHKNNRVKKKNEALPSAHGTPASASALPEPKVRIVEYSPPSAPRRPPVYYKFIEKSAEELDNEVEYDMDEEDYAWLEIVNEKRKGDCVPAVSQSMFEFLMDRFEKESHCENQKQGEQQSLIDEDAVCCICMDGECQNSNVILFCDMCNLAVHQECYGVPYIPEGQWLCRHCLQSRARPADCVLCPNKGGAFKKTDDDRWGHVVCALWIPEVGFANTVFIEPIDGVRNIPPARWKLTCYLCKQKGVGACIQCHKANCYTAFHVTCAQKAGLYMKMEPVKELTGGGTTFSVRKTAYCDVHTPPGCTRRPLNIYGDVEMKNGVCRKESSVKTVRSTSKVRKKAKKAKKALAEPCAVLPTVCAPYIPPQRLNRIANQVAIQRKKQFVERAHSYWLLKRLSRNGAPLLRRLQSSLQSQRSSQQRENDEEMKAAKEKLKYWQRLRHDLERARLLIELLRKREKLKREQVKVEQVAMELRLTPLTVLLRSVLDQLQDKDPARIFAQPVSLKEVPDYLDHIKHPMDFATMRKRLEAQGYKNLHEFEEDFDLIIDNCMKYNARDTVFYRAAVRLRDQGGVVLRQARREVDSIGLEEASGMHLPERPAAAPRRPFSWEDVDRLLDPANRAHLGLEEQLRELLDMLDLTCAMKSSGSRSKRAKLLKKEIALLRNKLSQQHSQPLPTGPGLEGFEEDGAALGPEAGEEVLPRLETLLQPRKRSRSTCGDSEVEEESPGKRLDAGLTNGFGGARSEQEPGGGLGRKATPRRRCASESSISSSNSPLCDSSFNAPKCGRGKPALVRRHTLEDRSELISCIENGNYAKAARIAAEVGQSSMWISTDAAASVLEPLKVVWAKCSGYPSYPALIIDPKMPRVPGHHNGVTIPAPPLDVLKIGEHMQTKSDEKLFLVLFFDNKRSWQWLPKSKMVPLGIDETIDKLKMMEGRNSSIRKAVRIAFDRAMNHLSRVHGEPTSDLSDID

[3] = target: Histone acetyltransferase KAT2B (Homo sapiens) (UniProt Q92831); experiment: Binding affinity to human PCAF expressed in mammalian system assessed as remaining binding level at 1 uM by BROMOscan assay relative to control
Peregrin (Homo sapiens) = target: T2, Peregrin (Homo sapiens) (UniProt P55201); experiment: Binding affinity to human BRPF1 expressed in bacterial system assessed as remaining binding level at 1 uM by BROMOscan assay relative to control
T2 sequence (whole entry): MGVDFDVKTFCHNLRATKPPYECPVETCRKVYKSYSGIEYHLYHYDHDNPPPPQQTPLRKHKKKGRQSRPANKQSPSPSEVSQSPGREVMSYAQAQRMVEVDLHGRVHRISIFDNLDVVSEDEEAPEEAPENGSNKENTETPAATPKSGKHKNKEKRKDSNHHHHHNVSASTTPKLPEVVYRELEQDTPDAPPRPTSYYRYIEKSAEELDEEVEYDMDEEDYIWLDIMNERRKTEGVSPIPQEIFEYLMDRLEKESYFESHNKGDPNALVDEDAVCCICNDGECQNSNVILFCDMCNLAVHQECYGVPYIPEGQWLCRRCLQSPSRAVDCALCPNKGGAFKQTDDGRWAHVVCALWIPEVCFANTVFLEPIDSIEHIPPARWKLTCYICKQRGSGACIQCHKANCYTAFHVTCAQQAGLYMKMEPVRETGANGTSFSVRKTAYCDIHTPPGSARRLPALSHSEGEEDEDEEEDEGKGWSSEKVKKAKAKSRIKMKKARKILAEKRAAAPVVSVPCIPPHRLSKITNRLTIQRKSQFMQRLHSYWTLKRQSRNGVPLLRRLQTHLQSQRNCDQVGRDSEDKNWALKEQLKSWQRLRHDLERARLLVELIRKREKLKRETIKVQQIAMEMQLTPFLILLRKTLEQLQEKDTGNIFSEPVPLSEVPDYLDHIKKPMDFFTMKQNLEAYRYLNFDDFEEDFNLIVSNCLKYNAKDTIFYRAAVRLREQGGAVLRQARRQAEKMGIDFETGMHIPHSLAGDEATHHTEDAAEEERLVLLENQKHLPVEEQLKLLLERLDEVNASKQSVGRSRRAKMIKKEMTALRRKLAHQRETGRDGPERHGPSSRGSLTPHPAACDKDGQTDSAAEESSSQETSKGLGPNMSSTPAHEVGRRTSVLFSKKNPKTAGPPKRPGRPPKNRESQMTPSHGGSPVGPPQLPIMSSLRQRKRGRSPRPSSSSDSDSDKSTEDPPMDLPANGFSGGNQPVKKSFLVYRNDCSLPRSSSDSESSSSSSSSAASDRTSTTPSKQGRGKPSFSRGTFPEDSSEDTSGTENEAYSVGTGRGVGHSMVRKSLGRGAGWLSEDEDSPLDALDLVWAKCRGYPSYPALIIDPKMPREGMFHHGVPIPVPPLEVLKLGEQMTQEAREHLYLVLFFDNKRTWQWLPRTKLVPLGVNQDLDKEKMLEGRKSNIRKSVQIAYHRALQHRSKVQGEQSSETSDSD

[4] = target: Transcription initiation factor TFIID subunit 1-like (Homo sapiens) (UniProt Q8IZX4); experiment: Binding affinity to human TAF1L bromodomain 2 expressed in bacterial system assessed as remaining binding level at 1 uM by BROMOscan assay relative to control
Mus musculus = experiment: Unbound clearance in mouse at 10 mg/kg, po; format: ADME, organism-based; details: in vivo

Sequence of Histone acetyltransferase KAT2B (Homo sapiens) (Q92831 whole entry, looked up): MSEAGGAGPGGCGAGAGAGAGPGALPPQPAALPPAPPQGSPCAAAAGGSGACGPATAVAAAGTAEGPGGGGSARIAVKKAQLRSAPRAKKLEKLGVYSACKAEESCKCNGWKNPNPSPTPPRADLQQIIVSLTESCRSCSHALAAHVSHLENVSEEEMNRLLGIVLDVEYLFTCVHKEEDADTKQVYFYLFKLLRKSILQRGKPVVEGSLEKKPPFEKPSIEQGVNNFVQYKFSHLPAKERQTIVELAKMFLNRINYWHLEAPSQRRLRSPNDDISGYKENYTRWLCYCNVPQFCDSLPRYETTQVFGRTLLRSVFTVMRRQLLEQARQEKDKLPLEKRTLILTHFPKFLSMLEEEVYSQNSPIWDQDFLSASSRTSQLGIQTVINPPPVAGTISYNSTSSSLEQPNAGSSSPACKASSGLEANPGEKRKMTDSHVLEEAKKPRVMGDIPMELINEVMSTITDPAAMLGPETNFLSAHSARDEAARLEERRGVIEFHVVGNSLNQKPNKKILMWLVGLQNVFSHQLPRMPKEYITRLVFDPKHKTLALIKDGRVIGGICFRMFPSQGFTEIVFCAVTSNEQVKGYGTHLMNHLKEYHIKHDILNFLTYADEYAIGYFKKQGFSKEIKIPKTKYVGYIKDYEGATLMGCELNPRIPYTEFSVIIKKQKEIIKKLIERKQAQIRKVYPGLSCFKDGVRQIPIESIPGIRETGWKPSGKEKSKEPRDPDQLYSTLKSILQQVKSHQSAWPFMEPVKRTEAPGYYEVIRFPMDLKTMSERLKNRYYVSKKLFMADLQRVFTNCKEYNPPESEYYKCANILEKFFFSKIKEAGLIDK
Sequence of Transcription initiation factor TFIID subunit 1-like (Homo sapiens) (Q8IZX4 whole entry): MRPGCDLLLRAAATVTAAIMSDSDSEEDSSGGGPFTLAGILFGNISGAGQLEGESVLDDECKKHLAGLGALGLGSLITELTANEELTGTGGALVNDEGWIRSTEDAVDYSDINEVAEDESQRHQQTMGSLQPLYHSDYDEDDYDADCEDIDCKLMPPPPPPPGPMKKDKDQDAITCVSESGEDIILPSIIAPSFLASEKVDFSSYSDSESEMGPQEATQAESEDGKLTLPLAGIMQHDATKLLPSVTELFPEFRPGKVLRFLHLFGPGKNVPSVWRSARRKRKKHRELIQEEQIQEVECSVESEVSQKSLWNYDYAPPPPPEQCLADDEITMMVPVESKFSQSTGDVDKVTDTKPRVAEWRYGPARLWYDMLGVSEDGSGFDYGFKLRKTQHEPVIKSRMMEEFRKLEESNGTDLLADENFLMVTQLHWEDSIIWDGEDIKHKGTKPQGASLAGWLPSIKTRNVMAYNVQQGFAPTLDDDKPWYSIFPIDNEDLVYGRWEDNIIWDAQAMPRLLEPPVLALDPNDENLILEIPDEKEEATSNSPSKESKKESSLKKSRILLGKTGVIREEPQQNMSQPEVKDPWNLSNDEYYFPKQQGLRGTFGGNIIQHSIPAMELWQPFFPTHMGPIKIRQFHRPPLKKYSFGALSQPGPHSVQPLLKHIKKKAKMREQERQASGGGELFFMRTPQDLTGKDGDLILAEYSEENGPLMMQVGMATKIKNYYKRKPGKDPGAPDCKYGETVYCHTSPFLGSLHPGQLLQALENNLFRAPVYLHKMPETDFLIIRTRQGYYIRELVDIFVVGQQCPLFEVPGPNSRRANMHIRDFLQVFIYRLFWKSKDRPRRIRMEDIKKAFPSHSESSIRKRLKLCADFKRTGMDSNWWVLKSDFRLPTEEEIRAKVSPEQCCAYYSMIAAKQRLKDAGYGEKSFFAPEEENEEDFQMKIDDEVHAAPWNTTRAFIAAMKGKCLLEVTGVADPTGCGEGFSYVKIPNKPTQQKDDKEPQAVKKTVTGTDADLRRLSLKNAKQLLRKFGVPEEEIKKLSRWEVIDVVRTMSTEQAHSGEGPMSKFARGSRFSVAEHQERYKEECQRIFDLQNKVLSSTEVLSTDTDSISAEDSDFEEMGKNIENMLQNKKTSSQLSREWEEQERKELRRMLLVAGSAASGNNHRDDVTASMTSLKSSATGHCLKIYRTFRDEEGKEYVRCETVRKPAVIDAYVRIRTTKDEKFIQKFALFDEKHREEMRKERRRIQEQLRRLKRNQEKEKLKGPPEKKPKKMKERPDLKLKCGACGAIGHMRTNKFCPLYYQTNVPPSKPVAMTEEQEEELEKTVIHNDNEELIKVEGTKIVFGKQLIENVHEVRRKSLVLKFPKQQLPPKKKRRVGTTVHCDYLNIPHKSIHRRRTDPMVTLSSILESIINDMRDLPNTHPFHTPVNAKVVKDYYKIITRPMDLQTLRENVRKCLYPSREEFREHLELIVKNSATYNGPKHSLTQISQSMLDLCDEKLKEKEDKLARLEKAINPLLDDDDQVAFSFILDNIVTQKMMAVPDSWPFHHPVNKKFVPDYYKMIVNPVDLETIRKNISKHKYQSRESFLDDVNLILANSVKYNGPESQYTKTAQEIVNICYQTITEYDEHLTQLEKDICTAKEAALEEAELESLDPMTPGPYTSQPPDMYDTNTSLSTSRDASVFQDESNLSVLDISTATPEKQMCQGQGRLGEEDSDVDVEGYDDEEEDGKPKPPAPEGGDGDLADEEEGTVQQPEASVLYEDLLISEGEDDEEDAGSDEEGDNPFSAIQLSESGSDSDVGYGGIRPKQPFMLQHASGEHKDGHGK
Sequence of Bromodomain adjacent to zinc finger domain protein 2A (Homo sapiens) (Q9UIF9 whole entry, the tested form may be a part): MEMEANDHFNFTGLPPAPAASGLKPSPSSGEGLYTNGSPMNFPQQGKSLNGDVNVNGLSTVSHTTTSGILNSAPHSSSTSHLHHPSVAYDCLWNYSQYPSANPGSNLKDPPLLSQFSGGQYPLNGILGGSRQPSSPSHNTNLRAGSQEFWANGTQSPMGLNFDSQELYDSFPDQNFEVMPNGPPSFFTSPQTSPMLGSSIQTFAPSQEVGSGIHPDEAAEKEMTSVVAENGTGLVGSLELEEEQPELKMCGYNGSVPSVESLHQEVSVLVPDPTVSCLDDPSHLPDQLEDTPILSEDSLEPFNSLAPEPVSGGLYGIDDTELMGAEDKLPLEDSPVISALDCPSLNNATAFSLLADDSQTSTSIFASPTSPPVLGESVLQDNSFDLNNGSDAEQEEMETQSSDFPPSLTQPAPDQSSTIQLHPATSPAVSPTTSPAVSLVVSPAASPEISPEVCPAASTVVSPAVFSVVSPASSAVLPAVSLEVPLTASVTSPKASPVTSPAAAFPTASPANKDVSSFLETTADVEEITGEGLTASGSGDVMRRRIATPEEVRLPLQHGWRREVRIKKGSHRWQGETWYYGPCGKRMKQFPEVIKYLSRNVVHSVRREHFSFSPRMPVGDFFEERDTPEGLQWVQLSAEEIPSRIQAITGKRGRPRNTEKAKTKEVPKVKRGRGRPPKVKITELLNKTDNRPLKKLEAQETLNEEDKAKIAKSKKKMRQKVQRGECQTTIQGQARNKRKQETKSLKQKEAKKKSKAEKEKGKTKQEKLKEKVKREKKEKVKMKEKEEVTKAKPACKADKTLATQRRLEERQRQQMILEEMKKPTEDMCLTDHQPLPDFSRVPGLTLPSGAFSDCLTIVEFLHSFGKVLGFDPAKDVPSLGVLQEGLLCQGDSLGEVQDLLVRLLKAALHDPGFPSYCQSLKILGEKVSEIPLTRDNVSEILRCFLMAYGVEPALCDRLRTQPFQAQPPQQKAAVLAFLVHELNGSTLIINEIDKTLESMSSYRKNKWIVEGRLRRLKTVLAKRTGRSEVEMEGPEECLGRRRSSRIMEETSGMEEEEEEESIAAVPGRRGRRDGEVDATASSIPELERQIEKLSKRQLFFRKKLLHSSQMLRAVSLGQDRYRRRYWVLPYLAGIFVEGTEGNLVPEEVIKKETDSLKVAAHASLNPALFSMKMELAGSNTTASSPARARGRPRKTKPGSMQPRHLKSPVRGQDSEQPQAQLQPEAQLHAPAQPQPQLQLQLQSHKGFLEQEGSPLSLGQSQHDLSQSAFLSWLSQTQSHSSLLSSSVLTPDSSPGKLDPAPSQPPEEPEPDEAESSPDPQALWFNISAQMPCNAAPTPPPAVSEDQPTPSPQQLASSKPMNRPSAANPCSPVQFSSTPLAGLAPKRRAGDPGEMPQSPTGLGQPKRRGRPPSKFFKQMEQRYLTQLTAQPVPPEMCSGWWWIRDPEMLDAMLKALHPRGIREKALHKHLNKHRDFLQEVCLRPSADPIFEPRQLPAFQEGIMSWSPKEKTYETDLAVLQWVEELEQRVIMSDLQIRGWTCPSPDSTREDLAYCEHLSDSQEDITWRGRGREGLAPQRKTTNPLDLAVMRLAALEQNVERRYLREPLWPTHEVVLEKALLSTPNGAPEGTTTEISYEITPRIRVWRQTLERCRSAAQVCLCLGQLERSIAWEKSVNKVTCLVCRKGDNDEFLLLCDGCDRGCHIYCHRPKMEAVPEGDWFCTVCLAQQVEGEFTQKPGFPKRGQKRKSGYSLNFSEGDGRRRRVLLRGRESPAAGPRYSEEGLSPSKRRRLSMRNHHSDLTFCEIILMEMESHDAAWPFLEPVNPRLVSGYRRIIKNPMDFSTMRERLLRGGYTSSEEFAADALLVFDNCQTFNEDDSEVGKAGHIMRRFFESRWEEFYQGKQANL

Row | SMILES | Activity [1] [%] | Activity [2] [%] | Activity [3] [%] | Activity (Peregrin (Homo sapiens)) [%] | Activity [4] [%] | CL free (Mus musculus) [mL/min/kg]
1 | Cn1cc2c3c(c[nH]c(=O)c31)-c1cc(CS(C)(=O)=O)ccc1N(c1ccc(F)cc1)C2 | 100 | 98 | 82 | 69 | 85 | 1300
2 | Cn1cc2c3c(c[nH]c3c1=O)CN(c1ccc(F)cc1F)c1ccc(CS(C)(=O)=O)cc1-2 | 47 | 87 | 90 | 14 | 18 | 750
3 | Cn1cc2c3c(c[nH]c3c1=O)CN(c1ccccn1)c1ccc(CS(C)(=O)=O)cc1-2 | 26 | 84 | 94 | 1.2 | 32 | 157
